Converted amounts (≈) assume the structure as drawn. Where a name gives a salt, the structure may show the parent alone.
Key:
[1] = cited from earlier work
[2] = Bioavailability after oral administration; format: in vivo
[3] = oral; % of the ingested/administered dose; cited from earlier work
[4] = Time to onset of calming / sedative / sleep-inducing effect; format: in vivo; settings: hydro-alcoholic solution of the invention via the oral mucous membrane
[5] = cited from earlier work; remark: listed apart in the source
plasma proteins = settings: cited from earlier work; for bonded to plasma proteins: in the blood stream
[6] = Stability in alcohol solution; format: physicochemical; settings: degree of alcohol starting from 35°
Experimental: In the studies, the doses normally administered orally, at bedtime, varied over the range 0.3 mg to 5 mg. High doses of Melatonin may exert a negative paradoxical action that propagates to phases that are not phases of responding to Melatonin.

[7] = administered orally, doses of 5 mg or 10 mg; cited from earlier work

Molecule	half-life in the organism ([1]; in vivo)	bioavailability when taken orally [3]	solubility in ethanol, in words ([5]; ethanol)	also measured
COc1ccc2cccc(CCNC(C)=O)c2c1 [Agomelatine]	less than 2 h	less than 5%	–	fraction of the orally administered dose destroyed / lost [2]: 95%
Cc1nnc2n1-c1sc(Br)cc1C(c1ccccc1Cl)=NC2 [Brotizolam]	4.4 h	around 50%	–	–
CN1CCC(=C2c3ccccc3C=Cc3ccccc32)CC1 [Cyproheptadine]	–	~25%	–	half-life, compared in words ([1]; compared with Doxylamine): longer than the half-life of Doxylamine
CN(C)CCOC(C)(c1ccccc1)c1ccccn1 (stereo not shown) [Doxylamine]	around 3.5 h	24.7%	easily soluble in ethanol	time until calming effect / drowsiness appears, in words [4]: within a few minutes
CN1CCN(C(=O)O[C@H]2c3nccnc3C(=O)N2c2ccc(Cl)cn2)CC1 [Eszopiclone]	6 h	–	–	bonded to plasma proteins (plasma proteins): 60%
COc1ccc2[nH]cc(CCNC(C)=O)c2c1 [Melatonin, N-Acetyl-5-Methoxytryptamine]	–	~15%	very soluble in ethanol	half-life ([1]; in vivo): greater than 50 min; stability in alcohol solution [6]: increases with increasing degree of alcohol
Cc1ncc2n1-c1ccc(Cl)cc1C(c1ccccc1F)=NC2 [Midazolam]	–	36%	freely soluble in ethanol	bonding to plasma proteins, in words (plasma proteins): bonds strongly to plasma proteins; solubility in water ([5]; water): 0.024 mg/mL (≈ 0.0737 mM)
Cc1ccc(-c2nc3ccc(C)cn3c2CC(=O)N(C)C)cc1 [Zolpidem tartrate]	–	–	–	solubility in water and in ethanol/alcohol, in words [5]: less soluble in water and in ethanol than Zolpidem base
Cc1ccc(-c2nc3ccc(C)cn3c2CC(=O)N(C)C)cc1 [Zolpidem]	2 to 3 h	≤ 70%	quite soluble in ethanol	time until effect is perceptible [7]: at least 15 min; time until calming effect / drowsiness appears, in words [4]: within only a few minutes; bonded to plasma proteins (plasma proteins): 92%; solubility in ethanol ([5]; ethanol): 50 mg/mL (≈ 163 mM)
CN1CCN(C(=O)OC2c3nccnc3C(=O)N2c2ccc(Cl)cn2)CC1 (stereo not shown) [Zopiclone]	–	–	–	solubility in water and in ethanol/alcohol, in words [5]: not very soluble in water and alcohol
(S)—N-(2-(1,6,7,8-tetrahydro-2H-indeno-(5,4)furan-8-yl)ethyl)propionamide [Ramelteon]	–	1.8%	very easily soluble in ethanol	bonded to plasma proteins (plasma proteins): 82%; fraction of the orally administered dose destroyed / lost [2]: 98.2%

Source: US20150352038A1, “A DOSAGE FORM FOR ADMINISTERING AN ACTIVE PRINCIPLE FOR ACCELERATED SLEEP INDUCTION AND/OR FOR TREATING SLEEP DISORDERS AND/OR FOR TREATING A CENTRAL NERVOUS SYSTEM DISORDER” (priority 2013, published 2015)
